In patent US11571423B2, “Small molecule modulators of human sting” (Curadev Pharma Limited, priority 2017, dated 2023):
Counter-ions that a name gives are not always drawn.

Biological target: hSTING(R232) (Homo sapiens, UniProt Q86WV6, H232R)
Assay: Luciferase reporter assay in HEK293T-hSTING-Luciferase cells, R232 (wild type) human STING
Format: cell-based
Settings: 20 hr stimulation, read-out: R232 human activity (EC50 range)
Method in brief: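 After 20 hr compound stimulation of 5×10^5 cells, secreted luciferase in the supernatant was measured by luminescence; values are fold-induction over baseline and EC50. The line is a clonal HEK293T stably carrying a STING plasmid (pUNO-1) and a luciferase reporter under five tandem ISREs fused to an ISG54 promoter.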

hSTING(R232), sequence (Q86WV6 whole entry H232R): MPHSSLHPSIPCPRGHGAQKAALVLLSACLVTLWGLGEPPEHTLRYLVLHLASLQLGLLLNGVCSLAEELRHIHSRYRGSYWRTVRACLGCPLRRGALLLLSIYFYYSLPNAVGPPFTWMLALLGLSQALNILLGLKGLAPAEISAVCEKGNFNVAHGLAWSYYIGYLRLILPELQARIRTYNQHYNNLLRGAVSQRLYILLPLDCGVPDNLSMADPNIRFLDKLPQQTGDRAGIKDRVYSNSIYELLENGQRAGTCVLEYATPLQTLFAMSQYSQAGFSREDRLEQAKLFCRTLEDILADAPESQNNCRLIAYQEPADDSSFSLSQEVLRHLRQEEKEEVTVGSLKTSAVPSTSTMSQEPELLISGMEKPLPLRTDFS

Row | SMILES | EC50
1 | CC1c2ccc(C(=O)NCc3c(F)cc(F)cc3F)cc2N(Cc2cc(OCCO)ccc2F)C(=O)N1C (stereo not drawn) [Example 233, 1-(2-fluoro-5-(2-hydroxyethoxy)benzyl)-3,4-dimethyl-2-oxo-N-(2,4,6-trifluorobenzyl)-1,2,3,4-tetrahydroquinazoline-7-carboxamide] | < 1000 nM
2 | CC1c2ccc(C(=O)NCc3c(F)cc(F)cc3F)cc2N(Cc2c(F)cccc2OCC(=O)O)C(=O)N1C (stereo not drawn) [Example 234, 2-(2-((3,4-dimethyl-2-oxo-7-((2,4,6-trifluorobenzyl)carbamoyl)-3,4-dihydroquinazolin-1(2H)-yl)methyl)-3-fluorophenoxy)acetic acid] | > 10000 nM
3 | CC1c2ccc(C(=O)NCc3c(F)cc(F)cc3F)cc2N(Cc2c(F)cccc2OCCO)C(=O)N1C (stereo not drawn) [Example 236, 1-(2-fluoro-6-(2-hydroxyethoxy)benzyl)-3,4-dimethyl-2-oxo-N-(2,4,6-trifluorobenzyl)-1,2,3,4-tetrahydroquinazoline-7-carboxamide] | < 1000 nM
4 | CC1c2ccc(C(=O)NCc3ccc(OCC(=O)O)cc3)cc2N(Cc2c(F)cccc2Cl)C(=O)N1C (stereo not drawn) [Example 240, 2-(4-((1-(2-chloro-6-fluorobenzyl)-3,4-dimethyl-2-oxo-1,2,3,4-tetrahydroquinazoline-7-carboxamido)methyl)phenoxy)acetic acid] | > 10000 nM
5 | C[C@H]1c2ccc(C(=O)NCc3c(F)cc(F)cc3F)cc2N(Cc2c(OCC(=O)O)ccc(F)c2F)C(=O)N1C [Example 244, (S)-2-(2-((3,4-dimethyl-2-oxo-7-((2,4,6-trifluorobenzyl)carbamoyl)-3,4-dihydroquinazolin-1(2H)-yl)methyl)-3,4-difluorophenoxy)acetic acid] | < 1000 nM
6 | COc1cccc(F)c1CNC(=O)c1ccc2c(c1)N(Cc1c(F)cccc1Cl)C(=O)N(C)[C@H]2C [Example 245, (S)-1-(2-chloro-6-fluorobenzyl)-N-(2-fluoro-6-methoxybenzyl)-3,4-dimethyl-2-oxo-1,2,3,4-tetrahydroquinazoline-7-carboxamide] | 1000 to 10000 nM
7 | COc1cc(F)ccc1CNC(=O)c1ccc2c(c1)N(Cc1c(F)cccc1Cl)C(=O)N(C)[C@H]2C [Example 247, (S)-1-(2-chloro-6-fluorobenzyl)-N-(4-fluoro-2-methoxybenzyl)-3,4-dimethyl-2-oxo-1,2,3,4-tetrahydroquinazoline-7-carboxamide] | 1000 to 10000 nM
8 | COc1cc(F)cc(CNC(=O)c2ccc3c(c2)N(Cc2c(F)cccc2Cl)C(=O)N(C)[C@H]3C)c1 [Example 248, (S)-1-(2-chloro-6-fluorobenzyl)-N-(3-fluoro-5-methoxybenzyl)-3,4-dimethyl-2-oxo-1,2,3,4-tetrahydroquinazoline-7-carboxamide] | 1000 to 10000 nM
9 | COc1cccc(CNC(=O)c2ccc3c(c2)N(Cc2c(F)cccc2Cl)C(=O)N(C)[C@H]3C)c1F [Example 249, (S)-1-(2-chloro-6-fluorobenzyl)-N-(2-fluoro-3-methoxybenzyl)-3,4-dimethyl-2-oxo-1,2,3,4-tetrahydroquinazoline-7-carboxamide] | 1000 to 10000 nM
10 | C[C@H]1c2ccc(C(=O)NCc3cc(O)cc(F)c3)cc2N(Cc2c(F)cccc2Cl)C(=O)N1C [Example 250, (S)-1-(2-chloro-6-fluorobenzyl)-N-(3-fluoro-5-hydroxybenzyl)-3,4-dimethyl-2-oxo-1,2,3,4-tetrahydroquinazoline-7-carboxamide] | < 1000 nM
11 | C[C@H]1c2ccc(C(=O)NCc3c(O)cccc3F)cc2N(Cc2c(F)cccc2Cl)C(=O)N1C [Example 251, (S)-1-(2-chloro-6-fluorobenzyl)-N-(2-fluoro-6-hydroxybenzyl)-3,4-dimethyl-2-oxo-1,2,3,4-tetrahydroquinazoline-7-carboxamide] | 1000 to 10000 nM
12 | C[C@H]1c2ccc(C(=O)NCc3ccc(F)cc3O)cc2N(Cc2c(F)cccc2Cl)C(=O)N1C [Example 253, (S)-1-(2-chloro-6-fluorobenzyl)-N-(4-fluoro-2-hydroxybenzyl)-3,4-dimethyl-2-oxo-1,2,3,4-tetrahydroquinazoline-7-carboxamide] | 1000 to 10000 nM
13 | C[C@H]1c2ccc(C(=O)NCc3cc(F)cc(OCCO)c3)cc2N(Cc2c(F)cccc2Cl)C(=O)N1C [Example 266, (S)-1-(2-chloro-6-fluorobenzyl)-N-(3-fluoro-5-(2-hydroxyethoxy)benzyl)-3,4-dimethyl-2-oxo-1,2,3,4-tetrahydroquinazoline-7-carboxamide] | > 10000 nM
14 | C[C@H]1c2ccc(C(=O)NCc3cccc(O)c3F)cc2N(Cc2c(F)cccc2Cl)C(=O)N1C [Example 267, (S)-1-(2-chloro-6-fluorobenzyl)-N-(2-fluoro-3-hydroxybenzyl)-3,4-dimethyl-2-oxo-1,2,3,4-tetrahydroquinazoline-7-carboxamide] | < 1000 nM
15 | C[C@H]1c2ccc(C(=O)NCc3c(F)cc(F)cc3F)cc2N(Cc2c(F)cccc2NC(=O)CN)C(=O)N1C [Example 272, (S)-1-(2-(2-aminoacetamido)-6-fluorobenzyl)-3,4-dimethyl-2-oxo-N-(2,4,6-trifluorobenzyl)-1,2,3,4-tetrahydroquinazoline-7-carboxamide dihydrochloride] | 1000 to 10000 nM
16 | C[C@H]1c2ccc(C(=O)NCc3c(F)cc(F)cc3F)cc2N(Cc2cc(O)c(O)cc2F)C(=O)N1C [Example 274, (S)-1-(2-fluoro-4,5-dihydroxybenzyl)-3,4-dimethyl-2-oxo-N-(2,4,6-trifluorobenzyl)-1,2,3,4-tetrahydroquinazoline-7-carboxamide] | 1000 to 10000 nM
17 | C[C@H]1c2ccc(C(=O)NCc3cccc(OCCO)c3F)cc2N(Cc2c(F)cccc2Cl)C(=O)N1C [Example 276, (S)-1-(2-chloro-6-fluorobenzyl)-N-(2-fluoro-3-(2-hydroxyethoxy)benzyl)-3,4-dimethyl-2-oxo-1,2,3,4-tetrahydroquinazoline-7-carboxamide] | > 10000 nM
18 | C[C@H]1c2ccc(C(=O)NCc3c(F)cc(F)cc3F)cc2N(Cc2c(F)cc(OCC(=O)O)cc2F)C(=O)N1C [Example 277, (S)-2-(4-((3,4-dimethyl-2-oxo-7-((2,4,6-trifluorobenzyl)carbamoyl)-3,4-dihydroquinazolin-1(2H)-yl)methyl)-3,5-difluorophenoxy)acetic acid] | > 10000 nM
19 | C[C@H]1c2ccc(C(=O)NCc3c(F)cc(F)cc3F)cc2N(Cc2c(F)cccc2NCCCO)C(=O)N1C [Example 278, (S)-1-(2-fluoro-6-((3-hydroxypropyl)amino)benzyl)-3,4-dimethyl-2-oxo-N-(2,4,6-trifluorobenzyl)-1,2,3,4-tetrahydroquinazoline-7-carboxamide] | < 1000 nM
20 | COc1cccc(CN2C(=O)N(C)[C@@H](C)c3ccc(C(=O)NCc4c(F)cc(F)cc4F)cc32)c1F [Example 279, (S)-1-(2-fluoro-3-methoxybenzyl)-3,4-dimethyl-2-oxo-N-(2,4,6-trifluorobenzyl)-1,2,3,4-tetrahydroquinazoline-7-carboxamide] | < 1000 nM
21 | C[C@H]1c2ccc(C(=O)NCc3c(F)cc(F)cc3F)cc2N(Cc2c(F)cc(OCCCN)cc2F)C(=O)N1C [Example 280, (S)-1-(4-(3-aminopropoxy)-2,6-difluorobenzyl)-3,4-dimethyl-2-oxo-N-(2,4,6-trifluorobenzyl)-1,2,3,4-tetrahydroquinazoline-7-carboxamide] | < 1000 nM
